The source of these data is patent US8193377B2, “(−)-epigallocatechin gallate derivatives for inhibiting proteasome” (The Hong Kong Polytechnic University, priority 2004, dated 2012).

pIC50: −log10 of the molar value. Where two headings read alike, the source gives them in different places.

Assay [1] deals with T1, purified rabbit 20s proteasome (Oryctolagus cuniculus, UniProt G1T4Q9).
T1 construct: purchased Boston Biochem (Cambridge, Mass.)
T1 sequence (G1T4Q9 1-263): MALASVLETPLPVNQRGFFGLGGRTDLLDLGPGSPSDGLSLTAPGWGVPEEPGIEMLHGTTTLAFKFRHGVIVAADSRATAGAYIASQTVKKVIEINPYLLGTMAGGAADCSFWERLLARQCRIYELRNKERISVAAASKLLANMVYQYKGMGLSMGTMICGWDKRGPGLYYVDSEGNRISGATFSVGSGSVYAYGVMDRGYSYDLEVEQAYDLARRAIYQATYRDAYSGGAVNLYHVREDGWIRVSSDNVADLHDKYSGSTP
Briefly: Inhibition of chymotrypsin-like activity of purified 20S proteasome. It counts as biochemical. The note with it: for pIC50: up to 25 μM, 30 min incubation, read-out: IC50; for IC50: Suc-Leu-Leu-Val-Tyr-AMC, 2 h incubation, Table 1, read-out: IC50 (μM), unprotected. As for the experimental part:
Measurement of the chyrnotrypsin-like activity of the 20s proteasome was performed by incubating 0.5 μg of purified rabbit 20s proteasome with 40 μM fluorogenic peptide substrate, Suc-Leu-Leu-Val-Tyr-AMC, with or without various concentrations of natural and synthetic tea polyphenols as described previously (Nam S et. al.).
In order to test this hypothesis, proteasome activity was tested both in vitro and in intact Jurkat T cells with either 1 or (−)-EGCG (as a positive control). First, 1 and commercial (−)-EGCG were dissolved in DMSO and their effects on the chymotrypsin-like activity of purified 20S proteasomes were measured. […] In contrast, (−)-EGCG at 10 μM inhibited 80-90% of the proteasomal chymotrypsin-like activity. Therefore, as predicted, 1 outside of a cellular system is not a proteasome inhibitor.
Up to 25 μM of all protected and unprotected compounds were incubated with a purified 20s proteasome and a fluorogenic substrate for chyrnotrypsin activity for 30 min. The half-maximal inhibitory concentration or IC50 was then determined. […] This is consistent with the results above.

Assay [2] concerns ubiquitinated proteins, Bax, p27, IκBα in Jurkat T cells. The experiment in a line: Western blot for ubiquitinated proteins and proteasome targets (Bax, p27, IκBα) in Jurkat T cells. The assay is classed as cell-based, human. Conditions: 25 μM, up to 8 h. The method, then: Whole cells extracts were prepared as described previously (An B, Goldfarb R H, Siman R, Dou Q P. Novel dipeptidyl proteasome inhibitors overcome Bc1-2 protective function and selectively accumulate the cyclin-dependent kinase inhibitor p27 and induce apoptosis in transformed, but not normal, human fibroblasts. Cell Death Differ 1998; 5: 1062-75.). Analysis of Bax, IKBa, p27, PAW, and ubiquitinated protein expression were performed using monoclonal or polyclonal antibodies according to previously reported protocols (An B et. al.).
To determine what effects the synthetic tea analogs had on the proteasome in vivo, Jurkat cells were treated with 25 μM of each synthetic compound for either 4 or 24 h, with (−)-EGCG as a control (FIGS. 9A and 9B). […] This is consistent with the idea that protected analogs are potent inhibitors of the proteasome at an earlier time point and that after 24 h of treatment the ubiquitinated proteins are being depleted by deubiquitinating enzymes. […] The putative ubiquitinated IκBα band is still found in cells treated with 2a, 3a, and 4a (FIG. 9B, Lanes 9, 5, 7). The presumed ubiquinated IκBα band is now absent in the 24 h treatment, possibly due to deubiquitination (FIG. 9B). Actin was used as a loading control in this experiment.
The pro-apoptotic protein Bax and the cyclin-dependent kinase inhibitor p27 are natural proteasome targets. If the peracetate-protected polyphenols inhibit the intact proteasome activity, we would expect accumulation of Bax and p27 in these cells. To test this idea, Jurkat T cells were treated with both protected and unprotected compounds and lysates were analyzed by Western blot using specific antibodies to Bax and p27 (FIG. 15). After 4 h of treatment, the peracetate-protected analogs 24* and 19*, but not their unprotected analogs, were able to increase accumulation of both Bax (by 3- and 2.5-fold, respectively) and p27 (6- and 11-fold, respectively) (FIG. 15A). After 24 h treatment, Bax levels were increased in cells treated with all of the peracetate-protected compounds (13-, 12-, 40- and 36-fold, respectively, by 24*, 19*, 21* and 23*).
On the technique in general: In western blotting, separated proteins are transferred to a membrane and probed.

In assay [3] the target is T2, proteasomal chymotrypsin-like activity in Jurkat T cells (Homo sapiens, UniProt P28074).
T2 construct: measurement of the proteasomal chymotrypsin-like activity in the prepared lysates; endogenous in cells; host or cells: Jurkat T cells (human leukemia)
T2 sequence (P28074 60-263): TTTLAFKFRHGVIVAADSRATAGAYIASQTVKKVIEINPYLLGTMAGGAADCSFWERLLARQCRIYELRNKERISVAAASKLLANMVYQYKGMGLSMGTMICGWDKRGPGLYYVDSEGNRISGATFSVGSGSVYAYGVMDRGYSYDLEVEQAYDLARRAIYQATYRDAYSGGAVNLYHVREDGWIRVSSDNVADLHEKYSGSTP
Briefly: Proteasomal chymotrypsin-like activity in intact Jurkat T cells / their lysates. The assay is classed as cell-based. Conditions: 25 μM, 4 and 24 h. The method, then: VA-13 or WI-38 cells were grown in 24 well plates (2 ml/well) to 70-80% confluency, followed by 24 h treatment with […] (−)-EGCG, 2, or 2a. […] Suc-Leu-Leu-Val-Tyr-AMC substrate was then added for 2.5 h at 37° C. and the chyrnotrypsin-like activity was measured as described above. Alternatively, cells were treated with each compound at 25 μM for 4 or 24 h, and harvested and lysed. Suc-Leu-Leu-Val-Tyr-AMC (40 μM) was then incubated with the prepared cell lysates for 2.5 h and the chymotrypsin-like activity was measured as described above.
If 1 converts to (−)-EGCG inside the cells, proteasome inhibition in vivo should be detected. To examine this possibility, human Jurkat cells was treated with 25 μM of 1 or (−)-EGCG for 12 or 24 h, followed by measurement of proteasome activity by using a chymotrypsin-like specific fluorogenic substrate in intact cells (FIG. 6a) or Western blot for ubiquinated proteins (FIG. 6b). […] To analyze the intracellular level of polyubiquitinated proteins, cells were lysed after 12 hours incubation and subjected to Western blotting. […] It is possible that the amount of EGCG generated from 1, and thus its biological activity inside the cells depends on a combination of factors: the relative permeability of 1 into the cells, the amount of esterase enzymes and the amount of anti-oxidants that may be present in the cells at any time.
To determine whether the unprotected and protected polyphenol analogs could inhibit the proteasomal activity in intact cells, leukemia Jurkat T cells were treated with each compound at 25 μM for 4 and 24 h, followed by collection of cell pellets and measurement of the proteasomal chymotrypsin-like activity in the prepared lysates.

The target of assay [4] is 20S prokaryotic proteasome (UniProt Q9P992). The experiment in a line: Table 2: effects of tea polyphenols on 20S prokaryotic proteasome activities. It counts as biochemical. The note with it: Table 2, This work. As for the experimental part:
To further examine the effects of B-ring —OH group deletion on proteasome-inhibitory and cell death-inducing abilities, we synthesized several novel EGCG analogs with eliminated —OH groups on the B-ring as well as their putative prodrugs, the peracetate-protected counterparts. By using a purified 20S proteasome and a chymotrypsin-like fluorogenic substrate, the proteasome-inhibitory effects of the following unprotected polyphenol analogs are determined: […]

For assay [5] the target is unchanged. The note with it: Table 2, Reference a (Smith et al. 2004), cited from earlier work.
Another assay relates to VA-13 cells. Briefly: Immunostaining of apoptotic cells with anti-cleaved PARP-FITC. The assay is classed as cell-based, human. Conditions: 25 μM, 24 h. As for the experimental part:
Immunostaining of apoptotic cells was performed by addition of a FITC-conjugated polyclonal antibody that recognizes cleaved poly(ADP-ribose) polymerase (PARP) and visualized on an Axiovert 2 5 (Zeiss; Thornwood, N.Y.) microscope. Cells were grown to about 80% confluency in 60 mm dishes. VA-13 cells were then treated with VP-16, 2, or 2a (25 μM) for 24 h. Following treatment, both suspension and adhering cells were collected and washed twice in PBS pH 7.4. The cells were washed between all steps listed below and all washes are 1 min duration with PBS. Cells were then fixed in ice-cold 70% ethanol, permeabilized in 0.1% Triton-X-100 and blocked for 30 min in 1% bovine serum albumin (BSA) at room temperature. Incubation with the primary FITC-conjugated-p85/PARP antibody was for 30 min at 4° C. in the dark with mild shaking. Cell suspension was then transferred to glass slides in the presence of Vector Shield mounting medium with DAPI. Images were captured using AxioVision 4.1 and adjusted using Adobe Photoshop 6.0 software. Cell death was quantified by counting the number of apoptotic cells over the total number of cells in the same field. Data are mean of duplicate experiments ±SD.
It has been shown that proteasome inhibition can induce apoptosis in a wide variety of cancer cells, but not in normal, non-transformed cells (An B et al). Jurkat T cells are treated with 25 μM of each of the selected polyphenols and their protected analogs for 24 h to investigate their abilities to induce apoptotic cell death. […] The unprotected 2 induced much less apoptosis (21%), while 25 μM VP-16, used as a positive control, induced 92% apoptosis (FIGS. 10C and 10D). Counterstain with DAPI, which binds to the minor groove in A-T rich regions of DNA, was decreased drastically in apoptotic cells (FIG. 10C), consistent with DNA fragmentation in late stage apoptosis.

20S prokaryotic proteasome, sequence (Q9P992 whole entry): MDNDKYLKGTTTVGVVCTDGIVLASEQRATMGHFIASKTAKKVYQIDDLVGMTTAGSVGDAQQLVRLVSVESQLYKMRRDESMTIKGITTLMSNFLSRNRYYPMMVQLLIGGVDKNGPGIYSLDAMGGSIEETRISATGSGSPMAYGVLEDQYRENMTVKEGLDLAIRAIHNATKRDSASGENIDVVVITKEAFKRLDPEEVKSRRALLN

Turning to `O=C(O[C@@H]1Cc2c(O)cc(O)cc2O[C@H]1c1cc(O)c(O)c(O)c1)c1ccc(O)cc1` (relative stereo) [Compound 3, (2S*,3R*)-trans-5,7-Bis(hydroxy)-2-[3,4,5-tris(hydroxy)phenyl]chroman-3-yl 4-(hydroxy)benzoate], the pIC50 (in general, the IC50 on a negative log10 scale, so that one unit is a factor of ten) in assay [1] was 4.82 to 4.85.
Consider `O=C(O[C@@H]1Cc2c(O)cc(O)cc2O[C@H]1c1cc(O)c(O)c(O)c1)c1cc(O)cc(O)c1` (relative stereo) [Compound 4, (2S*,3R*)-trans-5,7-Bis(hydroxy)-2-[3,4,5-tris(hydroxy)phenyl]chroman-3-yl 3,5-bis(hydroxy)benzoate], for which, in assay [2], the “time course of ubiquitinated protein accumulation” value is recorded as “highest expression after 8 hours”. Moreover, the pIC50 in assay [1] was 4.82 to 4.85.
As to `O=C(O[C@H]1Cc2c(O)cc(O)cc2O[C@H]1c1ccccc1)c1cc(O)c(O)c(O)c1` [Compound 15, (+)-(2S,3S)-5,7-dihydroxy-2-phenylchroman-3-yl 3,4,5-trihydroxybenzoate], the “proteasome inhibition in intact Jurkat T cells” value in assay [3] was “moderate potency”. The compound also showed a pIC50 in assay [4] of 5.34.
Compound `O=C(OC1Cc2c(O)cc(O)cc2OC1c1ccc(O)cc1)c1cc(O)c(O)c(O)c1` (centres unmarked) [#m] showed a pIC50 in assay [4] of 5.34.
For `O=C(O[C@H]1Cc2c(O)cc(O)cc2O[C@@H]1c1ccc(O)c(O)c1)c1cc(O)c(O)c(O)c1` [(+)-CG, (+)-(2R,3S)-5,7-dihydroxy-2-(3,4-dihydroxyphenyl)chroman-3-yl 3,4,5-trihydroxybenzoate], the pIC50 in assay [5] is 6.14.
`O=C(O[C@H]1Cc2c(O)cc(O)cc2O[C@@H]1c1ccc(O)c(O)c1)c1ccc(O)cc1` [Compound 11, (+)-(2R,3S)-5,7-dihydroxy-2-(3,4-dihydroxyphenyl)chroman-3-yl 4-hydroxybenzoate]: in assay [1], the IC50 (in general, the midpoint of a concentration-inhibition curve) was 7.7 µM.
Take `O=C(O[C@@H]1Cc2c(O)cc(O)cc2O[C@@H]1c1ccc(O)c(O)c1)c1ccc(O)cc1` [Compound 12, (−)-(2R,3R)-5,7-dihydroxy-2-(3,4-dihydroxyphenyl)chroman-3-yl 4-hydroxybenzoate]: in assay [1], the IC50 came to 5.99 µM.
Regarding `O=C(O[C@@H]1Cc2c(O)cc(O)cc2O[C@@H]1c1ccc(O)c(O)c1)c1cc(O)c(O)c(O)c1` [(−)-ECG, (−)-epicatechin-3-gallate], the pIC50 in assay [5] is 6.24.
For `O=C(O[C@@H]1Cc2c(O)cc(O)cc2O[C@@H]1c1ccc(O)cc1)c1ccc(O)cc1` [Compound 10, (−)-(2R,3R)-5,7-dihydroxy-2-(4-hydroxyphenyl)chroman-3-yl 4-hydroxybenzoate], the “proteasome inhibition in intact Jurkat T cells” value in assay [3] is “moderate potency”. The IC50 in assay [1] was 8.51 µM.
Turning to `O=C(O[C@H]1Cc2c(O)cc(O)c(Cc3ccccc3)c2O[C@H]1c1ccc(O)c(O)c1)c1cc(O)c(O)c(O)c1` [#1, (+)-(2S,3S)-5,7-dihydroxy-8-benzyl-2-[3,4-dihydroxy-phenyl]chroman-3-yl 3,4,5-trihydroxybenzoate], the pIC50 in assay [4] is 6.41.
Regarding `O=C(OC1Cc2c(O)cc(O)c(Cc3ccccc3)c2OC1c1ccc(O)c(O)c1)c1cc(O)c(O)c(O)c1` (centres unmarked) [Compound 16], the IC50 in assay [1] was determined as 0.59 µM.
Turning to `O=C(OC1Cc2c(O)cc(O)cc2OC1c1ccc(O)c(O)c1)c1cc(O)c(O)c(O)c1` (single isomer, unassigned; (-)) [(−)-CG], the pIC50 in assay [5] is 6.12.
For `O=C(OC1Cc2c(O)cc(O)cc2OC1c1ccc(O)c(O)c1)c1cc(O)c(O)c(O)c1` (single isomer, unassigned; (+)) [(+)-ECG], the pIC50 in assay [5] (read-out: IC50) was 6.14.
With `COc1cc([C@@H]2c3cc4c(cc3[C@@H](O[C@@H]3O[C@@H]5CO[C@@H](C)O[C@H]5[C@H](O)[C@H]3O)[C@H]3COC(=O)[C@H]23)OCO4)cc(OC)c1O` [VP-16, reference compound], the “apoptotic cells (p85 cleaved PARP)” value with VA-13 cells was found to be 92%.
